# Data taken from patent publication US8952024B2, “Herbicidal pyrimidone derivatives” (E I du Pont de Nemours and Company, priority 2009, dated 2015).
# Legend:
# Experiment in all cases: Test B pre-/postemergence plant response
# Format in all cases: in vivo
# [1] = test system: Italian ryegrass (Lolium multiflorum); settings: for Plant response rating, Ryegrass, Italian: Postemergence, scale 0 to 100 (0 no effect, 100 complete control)
# In short: (§1)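 Response scores were assigned visually after 13 to 15 days in a greenhouse, comparing treated pots with controls on a 0–100 scale where 100 denotes complete control. Preemergence treatments went onto freshly seeded loam/sand soil; postemergence treatments onto plants 2 to 18 cm tall.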
# [2] = test system: Surinam grass (Brachiaria decumbens); settings: for Plant response rating, Surinam Grass: Postemergence, scale 0 to 100 (0 no effect, 100 complete control)
# In short: as §1
# [3] = test system: bermudagrass (Cynodon dactylon)
# In short: as §1
# [4] = test system: blackgrass (Alopecurus myosuroides)
# In short: as §1
# [5] = test system: cocklebur (Xanthium strumarium)
# In short: as §1
# corn (Zea mays) = test system: corn (Zea mays)
# In short: as §1
# [6] = test system: downy bromegrass (Bromus tectorum)
# In short: as §1
# [7] = test system: green foxtail (Setaria viridis)
# In short: as §1
# kochia (Kochia scoparia) = test system: kochia (Kochia scoparia)
# In short: as §1
# [8] = test system: lambsquarters (Chenopodium album)
# In short: as §1
# [9] = test system: large crabgrass (Digitaria sanguinalis)
# In short: as §1
# [10] = test system: pigweed (Amaranthus retroflexus)
# In short: as §1
# [11] = test system: ragweed (common ragweed, Ambrosia elatior); settings: for Plant response rating, Ragweed: Postemergence, scale 0 to 100 (0 no effect, 100 complete control)
# In short: as §1
# soybean (Glycine max) = settings: for Plant response rating, Soybean: Postemergence, scale 0 to 100 (0 no effect, 100 complete control)
# In short: as §1
# [12] = test system: velvetleaf (Abutilon theophrasti); settings: for Plant response rating, Velvetleaf: Postemergence, scale 0 to 100 (0 no effect, 100 complete control)
# In short: as §1
# wild oat (Avena fatua) = test system: wild oat (Avena fatua)
# In short: as §1
# [13] = test system: yellow nutsedge (Cyperus esculentus)
# In short: as §1
# [14] = 62 g ai/ha, postemergence, 0 is no effect, 100 is complete control, 13 to 15 days
# [15] = 31 g ai/ha, postemergence, scale 0 to 100, 0 is no effect, 100 is complete control
# [16] = Postemergence, 125 g ai/ha, scale 0 to 100 (0 no effect, 100 complete control)
# [17] = Postemergence, 250 g ai/ha, scale 0 to 100 (0 no effect, 100 complete control)
compound,measurement,setting,value
COCCn1c(-c2cccs2)ncc(C(=O)C2=C(O)CCCC2=O)c1=O [Compound 108],"Ryegrass, Italian plant response rating (0 to 100 scale)",[1]; [14],0
same,"Plant response rating, Ryegrass, Italian",[1]; 125 g ai/ha,0
same,"Plant response rating, Ryegrass, Italian",[1]; 250 g ai/ha,0
same,Surinam Grass plant response rating (0 to 100 scale),[2]; [14],60
same,"Plant response rating, Surinam Grass",[2]; 125 g ai/ha,65
same,"Plant response rating, Surinam Grass",[2]; 250 g ai/ha,80
same,"Plant response rating, Bermudagrass",[3]; [15],85
same,Bermudagrass plant response rating (0 to 100 scale),[3]; [14],90
same,"Plant response rating, Bermudagrass",[3]; [16],100
same,"Plant response rating, Bermudagrass",[3]; [17],100
same,"Plant response rating, Blackgrass",[4]; [15],0
same,Blackgrass plant response rating (0 to 100 scale),[4]; [14],5
same,"Plant response rating, Blackgrass",[4]; [16],20
same,"Plant response rating, Blackgrass",[4]; [17],30
same,"Plant response rating, Cocklebur",[5]; [15],75
same,Cocklebur plant response rating (0 to 100 scale),[5]; [14],95
same,"Plant response rating, Cocklebur",[5]; [16],100
same,"Plant response rating, Cocklebur",[5]; [17],100
same,"Plant response rating, Corn",corn (Zea mays); [15],15
same,Corn plant response rating (0 to 100 scale),corn (Zea mays); [14],35
same,"Plant response rating, Corn",corn (Zea mays); [16],50
same,"Plant response rating, Corn",corn (Zea mays); [17],65
same,"Plant response rating, Bromegrass, Downy",[6]; [15],0
same,"Bromegrass, Downy plant response rating (0 to 100 scale)",[6]; [14],0
same,"Plant response rating, Bromegrass, Downy",[6]; [16],5
same,"Plant response rating, Bromegrass, Downy",[6]; [17],5
same,"Plant response rating, Foxtail, Green",[7]; [15],5
same,"Foxtail, Green plant response rating (0 to 100 scale)",[7]; [14],30
same,"Plant response rating, Foxtail, Green",[7]; [16],80
same,"Plant response rating, Foxtail, Green",[7]; [17],80
same,"Plant response rating, Kochia",kochia (Kochia scoparia); [15],70
same,Kochia plant response rating (0 to 100 scale),kochia (Kochia scoparia); [14],95
same,"Plant response rating, Kochia",kochia (Kochia scoparia); [16],98
same,"Plant response rating, Kochia",kochia (Kochia scoparia); [17],100
same,"Plant response rating, Lambsquarters",[8]; [15],98
same,Lambsquarters plant response rating (0 to 100 scale),[8]; [14],98
same,"Plant response rating, Lambsquarters",[8]; [16],100
same,"Plant response rating, Lambsquarters",[8]; [17],100
same,"Plant response rating, Crabgrass, Large",[9]; [15],60
same,"Crabgrass, Large plant response rating (0 to 100 scale)",[9]; [14],70
same,"Plant response rating, Crabgrass, Large",[9]; [16],75
same,"Plant response rating, Crabgrass, Large",[9]; [17],85
same,"Plant response rating, Pigweed",[10]; [15],95
same,Pigweed plant response rating (0 to 100 scale),[10]; [14],98
same,"Plant response rating, Pigweed",[10]; [16],100
same,"Plant response rating, Pigweed",[10]; [17],100
same,Ragweed plant response rating (0 to 100 scale),[11]; [14],85
same,"Plant response rating, Ragweed",[11]; 125 g ai/ha,95
same,"Plant response rating, Ragweed",[11]; 250 g ai/ha,98
same,Soybean plant response rating (0 to 100 scale),soybean (Glycine max); [14],55
same,"Plant response rating, Soybean",soybean (Glycine max); 125 g ai/ha,65
same,"Plant response rating, Soybean",soybean (Glycine max); 250 g ai/ha,85
same,Velvetleaf plant response rating (0 to 100 scale),[12]; [14],100
same,"Plant response rating, Velvetleaf",[12]; 125 g ai/ha,100
same,"Plant response rating, Velvetleaf",[12]; 250 g ai/ha,100
same,"Plant response rating, Oat, Wild",wild oat (Avena fatua); [15],0
same,"Oat, Wild plant response rating (0 to 100 scale)",wild oat (Avena fatua); [14],0
same,"Plant response rating, Oat, Wild",wild oat (Avena fatua); [16],0
same,"Plant response rating, Oat, Wild",wild oat (Avena fatua); [17],0
same,"Plant response rating, Nutsedge, Yellow",[13]; [15],50
same,"Nutsedge, Yellow plant response rating (0 to 100 scale)",[13]; [14],75
same,"Plant response rating, Nutsedge, Yellow",[13]; [16],80
same,"Plant response rating, Nutsedge, Yellow",[13]; [17],85
